# Test results reported in PubChem BioAssay (NCI).
#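 Assay format: 96-well plates, 48-hour exposure. At the GI50, growth is halved. Definition used: TGI = concentration required for complete inhibition of growth.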
# Columns and labels:
# Assay in all cases: NCI-60 cell line screen, 48 h
# A498 renal = tested on: A498 renal
# EKVX NSCLC = tested on: EKVX NSCLC
# HCC-2998 colon = tested on: HCC-2998 colon
# M14 melanoma = tested on: M14 melanoma
# NCI-H522 lung = tested on: NCI-H522 lung
# RPMI-8226 leukemia = tested on: RPMI-8226 leukemia
# RXF 393 renal = tested on: RXF 393 renal
# SF-268 CNS = tested on: SF-268 CNS
# SK-MEL-2 melanoma = tested on: SK-MEL-2 melanoma
# SK-MEL-28 melanoma = tested on: SK-MEL-28 melanoma
Compound,GI50 (A498 renal) [µM],TGI (A498 renal) [µM],GI50 (EKVX NSCLC) [µM],TGI (EKVX NSCLC) [µM],GI50 (HCC-2998 colon) [µM],TGI (HCC-2998 colon) [µM],GI50 (M14 melanoma) [µM],TGI (M14 melanoma) [µM],GI50 (NCI-H522 lung) [µM],TGI (NCI-H522 lung) [µM],GI50 (RPMI-8226 leukemia) [µM],TGI (RPMI-8226 leukemia) [µM],GI50 (RXF 393 renal) [µM],TGI (RXF 393 renal) [µM],GI50 (SF-268 CNS) [µM],TGI (SF-268 CNS) [µM],GI50 (SK-MEL-2 melanoma) [µM],TGI (SK-MEL-2 melanoma) [µM],GI50 (SK-MEL-28 melanoma) [µM],TGI (SK-MEL-28 melanoma) [µM]
O=C1CCCN1CC#CCN1CCCC1,> 100,> 100,> 100,> 100,> 100,> 100,> 100,> 100,> 100,> 100,> 100,> 100,> 100,> 100,> 100,> 100,> 100,> 100,> 100,> 100
COC(=O)CCCCCN=Cc1c(O)c(O)c(C(C)C)c2cc(C)c(-c3c(C)cc4c(C(C)C)c(O)c(O)c(C=NCCCCCC(=O)OC)c4c3O)c(O)c12,2.74,> 32.5,1.18,> 32.5,2.15,> 32.5,2.3,25.9,0.968,6.52,0.946,15.1,0.851,4.65,1.51,> 32.5,2.2,28.7,1.95,> 32.5
Cc1nc(C(N)=S)sc1C(=O)C/C(=N/N)C(=O)Nc1cccc(Cl)c1C,,> 100,,> 100,,> 100,,> 100,,> 100,,> 100,,> 100,,> 100,,> 100,,> 100
O=C1CCC(O)=C1O,,> 100,,> 100,,> 100,,> 100,,> 100,,> 100,,> 100,,> 100,,> 100,,> 100
C/C(=N\NC(N)=S)c1nc2ccc(Cl)cc2[nH]1,7.11,22.5,0.966,12.3,4.1,16.4,1.8,28.5,1.24,7.9,3.3,30.6,4.59,28.7,2.03,11.3,2.81,44.6,5.7,35.9
CCCCCCN(CCCCCC)CC(O)c1ccc2c3c(cccc13)CC2 (stereo not given),2.31,12,6.64,23.1,3.07,9.67,3.95,17,3.14,13.2,3.02,9.83,2.39,7.21,12,24.9,11,24.7,11.2,24.9
Cc1cc(=O)oc2cc(O)c(CN(C)CC(=O)O)cc12,,> 100,,> 100,,> 100,,> 100,,> 100,,> 100,,> 100,,> 100,,> 100,,> 100
O=C(OC[C@H]1O[C@@H](OC(=O)c2cc(O)c(O)c(O)c2)[C@H](OC(=O)c2cc(O)c(O)c(O)c2)[C@@H](OC(=O)c2cc(O)c(O)c(O)c2)[C@@H]1OC(=O)c1cc(O)c(O)c(O)c1)c1cc(O)c(O)c(O)c1,,37.5,,70.9,,12.3,,24.4,,14.2,,> 100,,31.2,,33.7,,26.4,,56.7
Cc1c2ccc(N(C)c3ccnc(Nc4cccc(S(N)(=O)=O)c4)n3)cc2nn1C,1.89,> 17.9,11.8,> 25,18.9,> 25,9.73,> 25,6.09,23.7,13.6,> 25,7.14,> 22.7,8.51,> 25,7.06,16.7,9.95,> 25
CCN(CC)c1ccc2c(c1)Nc1cc(=C(C#N)C#N)c3ccccc3c1=N2,,> 100,,> 100,,> 100,,> 100,,> 100,,> 100,,> 100,,> 100,,> 100,,> 100
C=C(C=O)CCCC(C)[C@@H]1CCC23CC12CCC1[C@@]2(C)CCC(OC(C)=O)C(C)(C)C2CC(OC2OC(COC(C)=O)C(O)C(O)C2O)[C@]13C (stereo not given in full),,13.3,,13.7,,13.9,,4.57,,1.53,,3.01,,11.7,,12.3,,13.9,,1.77
NC(=O)c1ccc(C2C3=C(CCCC3=O)OC3=C2C(=O)c2ccccc2C3=O)cc1 (stereo not given),1.36,2.69,0.687,2.83,2.06,4.29,0.609,2.03,0.307,0.757,0.521,2.63,1.43,2.87,0.466,1.93,0.576,2.06,1.33,2.87
Cn1cc(CNCC2CCN(c3ncc(C(=O)NO)cn3)CC2)c2ccccc21,0.0102,0.0274,0.0255,23.4,0.0141,0.0837,0.0114,1.25,< 0.01,0.0615,< 0.01,40.5,< 0.0107,0.0385,0.0259,0.896,< 0.0151,0.334,0.0122,0.102
Cc1ccc(NC(=O)Cn2c(Br)nc3c2c(=O)n(C)c(=O)n3C)cc1,2.01,5.87,10.7,25.9,15.5,28.9,5.98,19.2,9.27,36.3,3.25,19.4,2.29,6.28,8.3,22.8,13.4,27.4,11.4,23.5
C=C=C(C(=O)OC)S(=O)c1ccc([N+](=O)[O-])cc1[N+](=O)[O-] (stereo not given),,> 100,,> 100,,31.2,,> 69.5,,21,,55.1,,> 68,,> 74.6,,> 79.8,,> 70
